What was measured:
[1] = Lipophilicity (LogD7.4), shake-flask method
Description: Lipophilicity. Shake-flask method was used for determining the lipophilicities (LogD7.4) of the radiolabeled
compounds. LogD7.4 was determined as a distribution of radioactivity between 0.01 M PBS and octanol. The
purified radiolabeled compound (25 µL) was added to a 1:1 mixture of 1-octanol and 0.02 M PBS (pH 7.4) in
a 1.5 mL microtube. The mixture was shaken mechanically at 500 rpm for 10 minutes, centrifuged (1000 × g,
5 minutes), and the layers were separated, followed by pipetting a sample (500 µL) from each layer into a pre-
weighed polypropylene tube. The radioactivity in the sample was measured with a Wizard gamma counter.
The distribution of the radiolabeled compound between the octanol and the PBS layers was calculated

[2] = Reversed-phase HPLC-RAD/DAD retention of DHP and pyridazine forms; format: physicochemical; conditions: HPLC-RAD/DAD and HPLC-RAD/UV, Kinetex 5 µm C18 250 × 10.0 mm, 20-50% B in 20 min, H2O/ACN + 0.1% TFA, 3 mL/min, room temperature; elution order used as indication of lipophilicity
Description: The HPLC instruments were equipped with either two channel UV/VIS or a PDA detector, and a NaI(Tl) scintillation detector for detection of radioactivity.
Table S2. The gradient used for HPLC-RAD/DAD studies.
Flow rate: 3 mL/min at room temperature
Column: Phenomenex Kinetex® 5 µm C18 100 Å, LC Column 250 × 10.0 mm
Eluents: (A) H2O+0.1% Trifluoroacetic acid and (B) ACN +0.1% Trifluoroacetic acid

[3] = Incubation tests of IEDDA cycloaddition product (conversion of DHPs to oxidized pyridazine form); format: physicochemical; conditions: for Conversion to oxidized form of the peptide cycloadduct: incubation in ≥95% (v/v) water at 60 °C; for Conversion to oxidized form of the peptide cycloadduct / [18F]AmBF3(ox.)-TOC (%): radio-HPLC
Description: Protic solvents in acidic reaction conditions at various temperatures were used in-order to investigate the conditions that might influence the formation of the oxidized form from DHPs or that might slow down the process. […] The (radio)peaks of [^19F/^18F]6(a, b) (peptide 6, tR = 20 min) were successfully converted (≥97%) to the more polar compound (peptide 6, tR = 17 min) by incubation in increasing amounts of water in acetonitrile (Fig. 2C). When incubating in 75% (v/v) ACN in water for 10 min at 60 °C, the conversion to polar (peptide 6, tR = 17 min) compound was 59% (ESI Table S7 ^†).
Table S7. Incubation tests of IEDDA cycloaddition product.
Peptide Peptide Solvent Vol. pH Temp. Time [18F] AmBF3 (ox.)-
(nmol) (v/v-%) (µL) (°C) (min) TOC (%)

tumour = conditions: ex vivo biodistribution and PET/CT imaging; tumour uptake efficiently blocked; ref earlier cohort by us; cited from earlier work
Description: In this study, we report a rapid, mild, and facile method for converting dihydropyridazine cycloaddition products to pyridazine during IEDDA, in only 10 minutes.

[4] = tested on: SSTR2-expressing rat pancreatic adenocarcinoma AR42J cells; experiment: Cell uptake assay in AR42J cells; format: cell-based; conditions: oxidized pyridazine form, gamma counting
Description: Aoct=activity in the octanol phase
APBS=activity in the PBS phase
Cell-uptake assay in AR42J
The cells were cultured in Gibco™ F-12K Medium
1×PBS was prepared from Phosphate Buffered Saline
Tablets (Fisher Bioreagents, Hampton, USA) in water. 1.0 M Sodium hydroxide was purchased from VWR […]
Chemicals. […] AR42J cells (1×106 per […]
well) were seeded overnight on 6-well plates.
Another set of cells were co-incubated in […]
microtube (=free fraction). […]
washing the cells with cold 1×PBS. […] 1 M NaOH […]
microtube (=internalized fraction).

**Q.** Which logD ([1]; pH 7.4) does the source give for `C[C@@H](O)[C@@H]1NC(=O)[C@H](CCCCN)NC(=O)[C@@H](Cc2c[nH]c3ccccc23)NC(=O)[C@H](Cc2ccc(O)cc2)NC(=O)[C@@H](NC(=O)[C@@H](Cc2ccccc2)NC(=O)CCOCCOCCOCCOCCON=Cc2ccc(CNC(=O)OC3CCCc4cnnc(-c5ccc(CC(=O)NCC[N+](C)(C)C[B-](F)(F)F)cc5)c4CC3)cc2)CSSC[C@@H](C(=O)N[C@H](CO)[C@@H](C)O)NC1=O` (stereo partly shown) [[18F]5 (ox.), AmBF3-PEG4-TOC] here?
**A.** 0.58 ± 0.06

**Q.** What about the Retention time [2] of the same molecule?
**A.** 18.7 min

**Q.** What about the “Conversion to oxidized form of the peptide cycloadduct” value [3] of the same molecule?
**A.** full conversion

**Q.** With `C[C@@H](O)[C@@H]1NC(=O)[C@H](CCCCN)NC(=O)[C@@H](Cc2c[nH]c3ccccc23)NC(=O)[C@H](Cc2ccc(O)cc2)NC(=O)[C@@H](NC(=O)[C@@H](Cc2ccccc2)NC(=O)CCOCCOCCOCCOCCON=Cc2ccc(C(=O)NCCOCCOCCOCCNC(=O)OC3CCCC4=C(c5ccc(CC(=O)NCC[N+](C)(C)C[B-](F)(F)F)cc5)NN=CC4CC3)cc2)CSSC[C@@H](C(=O)N[C@H](CO)[C@@H](C)O)NC1=O` (stereo partly shown) [[18F]6 (DHP, a)] as the molecule, how does the Retention time [2] read?
**A.** 20.6 min

**Q.** For `C[C@@H](O)[C@@H]1NC(=O)[C@H](CCCCN)NC(=O)[C@@H](Cc2c[nH]c3ccccc23)NC(=O)[C@H](Cc2ccc(O)cc2)NC(=O)[C@@H](NC(=O)[C@@H](Cc2ccccc2)NC(=O)CCOCCOCCOCCOCCON=Cc2ccc(C(=O)NCCOCCOCCOCCNC(=O)OC3CCCC4=C(c5ccc(CC(=O)NCC[N+](C)(C)C[B-](F)(F)F)cc5)NN=CC4CC3)cc2)CSSC[C@@H](C(=O)N[C@H](CO)[C@@H](C)O)NC1=O` (stereo partly shown) [[18F]6 (DHP, b)], which Retention time [2] is on record?
**A.** 20.2 min

**Q.** With `C[C@@H](O)[C@@H]1NC(=O)[C@H](CCCCN)NC(=O)[C@@H](Cc2c[nH]c3ccccc23)NC(=O)[C@H](Cc2ccc(O)cc2)NC(=O)[C@@H](NC(=O)[C@@H](Cc2ccccc2)NC(=O)CCOCCOCCOCCOCCON=Cc2ccc(C(=O)NCCOCCOCCOCCNC(=O)OC3CCCc4cnnc(-c5ccc(CC(=O)NCC[N+](C)(C)C[B-](F)(F)F)cc5)c4CC3)cc2)CSSC[C@@H](C(=O)N[C@H](CO)[C@@H](C)O)NC1=O` (stereo partly shown) [[18F]6, AmBF3-PEG7-TOC] as the molecule, how does the LogD7.4 ([1]; shake-flask 1-octanol/PBS (pH 7.4) 1:1, 25 µL purified radiolabelled compound, shaken 500 rpm 10 min, centrifuged 1000 × g 5 min, gamma counter, mean ± SD, n = 3-4, HPLC-separated fractions (DHP a 77%, DHP b 88% pure), listed as [^18F]6(ox.)) read?
**A.** −0.73 ± 0.12

**Q.** And the “Tumour visualization in vivo” value (tumour)?
**A.** able to visualize the tumour in vivo

**Q.** What about the “Cell uptake in AR42J cells (specificity, blocking with octreotide)” value ([4]; 1 million AR42J cells per well, 37 °C, triplicates per timepoint, blocked by co-incubation with excess non-radiolabelled octreotide) of the same molecule?
**A.** specific uptake

**Q.** And the “Internalization by AR42J cells” value ([4]; internalized fraction after glycine buffer (pH 2.8) wash and 1 M NaOH lysis)?
**A.** internalized by the cells

**Q.** And the “[18F]AmBF3(ox.)-TOC (%)” value ([3]; 2 nmol peptide, ACN:H2O (25:75), 60 µL, 60 °C, 15 min, n = 1)?
**A.** 84%

**Q.** What about the “[18F]AmBF3(ox.)-TOC (%)” value ([3]; 2.5 nmol peptide, 0.15 mM citrate buffer, 180 µL, pH 3.75, 60 °C, 10 min) of the same molecule?
**A.** 9%

**Q.** What about the “[18F]AmBF3(ox.)-TOC (%)” value ([3]; 2.5 nmol peptide, ACN:H2O (25:75), 20 µL, 60 °C, 10 min) of the same molecule?
**A.** 89%

**Q.** What about the “[18F]AmBF3(ox.)-TOC (%)” value ([3]; 2.5 nmol peptide, ACN:H2O (40:60), 25 µL, 60 °C, 15 min, n = 1) of the same molecule?
**A.** 77%

**Q.** And the “[18F]AmBF3(ox.)-TOC (%)” value ([3]; 2.5 nmol peptide, ACN:H2O (75:25), 20 µL, 60 °C, 10 min, n = 1)?
**A.** 59%

**Q.** And the “[18F]AmBF3(ox.)-TOC (%)” value ([3]; 5 nmol peptide, 0.01 mM citrate buffer, 180 µL, pH 4, 37 °C, 10 min)?
**A.** 4%

**Q.** What about the “[18F]AmBF3(ox.)-TOC (%)” value ([3]; 5 nmol peptide, 0.15 mM citrate buffer, 180 µL, pH 3.75, 37 °C, 10 min) of the same molecule?
**A.** 5%

**Q.** What about the “[18F]AmBF3(ox.)-TOC (%)” value ([3]; 5 nmol peptide, 10 x PBS, 180 µL, pH 6.8, 37 °C, 10 min) of the same molecule?
**A.** 5%

**Q.** And the “[18F]AmBF3(ox.)-TOC (%)” value ([3]; 7.5 nmol peptide, ACN:H2O (13:87), 150 µL, 60 °C, 10 min)?
**A.** 25%

**Q.** What about the “[18F]AmBF3(ox.)-TOC (%)” value ([3]; 7.5 nmol peptide, ACN:H2O (25:75), 20 µL, 40 °C, 20 min) of the same molecule?
**A.** 86%

**Q.** What about the “[18F]AmBF3(ox.)-TOC (%)” value ([3]; 2-50 nmol peptide, ACN:H2O (≥95% H2O), 20-200 µL, 60 °C, 10 min, n = 1) of the same molecule?
**A.** 100%

**Q.** What about the “Conversion of DHP peak cluster (tR ≈ 20 min) to single oxidized peak (tR = 17 min) at room temperature” value ([3]; collected HPLC fraction left at room temperature for 18 hours (overnight), HPLC-DAD and UHPLC-HRMS) of the same molecule?
**A.** total conversion

**Q.** What about the “Conversion to oxidized form of the peptide cycloadduct” value [3] of the same molecule?
**A.** full conversion

Reference: PMC10369045, “Radiolabelling of peptides with tetrazine ligation based on the inverse electron-demand Diels–Alder reaction: rapid, catalyst-free and mild conversion of 1,4-dihydropyridazines to pyridazines” (RSC Advances, 2023)
